Results published in patent US20230255953A1, “USE OF ROLUPERIDONE IN PREVENTING RELAPSE IN SCHIZOPHRENIA PATIENTS” (Minerva Neurosciences, Inc., priority 2022, published 2023).

Test system: patients with negative symptoms of schizophrenia
Experiment: Study #1 (MIN-101C03): Brief Assessment of Cognition in Schizophrenia
Format: in vivo, human
Parameters: Change from Baseline LS Mean: Brief Assessment of Cognition in Schizophrenia Total Score / Change from Baseline LS Mean: Brief Assessment of Cognition in Schizophrenia Total Verbal Fluency: unit not given here
Conditions: Week 12 DB, ITT
Description: Phase 2b Study #1 (also referred to herein as “MIN-101C03”) was a Phase 2b, double-blind (“DB”), placebo-controlled, randomized, multicenter 12-week study to evaluate the efficacy, safety, and tolerability of Roluperidone in patients ≥18 years to ≤60 years with negative symptoms of schizophrenia, followed by a 24-week open-label (“OL”) extension. The primary objective of the study was to evaluate the efficacy of Roluperidone compared to placebo in improving the negative symptoms of schizophrenia as measured by the change from Baseline in the PANSS negative factor score of the PSM (“PANSS PSM”) over 12 weeks of treatment.
The study consisted of a pretreatment screening period of up to 28 days (including washout), a 12-week, DB, placebo-controlled period, and a 24-week OL period. Eligible patients (who were symptomatically stable for at least 3 months and had scores of at least 20 on the PANSS negative subscale score) were randomized in a 1:1:1 ratio to receive oral Roluperidone (a modified-release, “MR”, formulation) 32 mg QD, Roluperidone 64 mg QD, or placebo for 12 weeks. […] During the 24-week, OL treatment extension period, patients who were initially randomized to Roluperidone 32 mg or 64 mg continued on the same dose, while patients who were initially randomized to placebo crossed over to Roluperidone 32 mg or 64 mg in a 1:1 ratio.

In the case of “1H-Isoindol-1-one,2-[ [1-[2-(4-fluorophenyl)-2-oxoethyl]-4-piperidinyl]methyl]-2,3-dihydro-, hydrochloride, hydrate (1:1:2) [Roluperidone]”, the “Change from Baseline LS Mean: Brief Assessment of Cognition in Schizophrenia Total Score” value (32 mg QD) is reported as 23.8, the “Change from Baseline LS Mean: Brief Assessment of Cognition in Schizophrenia Total Verbal Fluency” value (32 mg QD) is reported as 5.76 and the “Effect Size vs Placebo: Brief Assessment of Cognition in Schizophrenia Total Score” value (32 mg QD) is reported as 0.43. The “Effect Size vs Placebo: Total Verbal Fluency” value (32 mg QD) was 0.51, the “Change from Baseline LS Mean: Brief Assessment of Cognition in Schizophrenia Total Score” value (64 mg QD) was 14.9 and the “Change from Baseline LS Mean: Brief Assessment of Cognition in Schizophrenia Total Verbal Fluency” value (64 mg QD) was 4.37. The “Effect Size vs Placebo: Brief Assessment of Cognition in Schizophrenia Total Score” value (64 mg QD) was 0.12 and the “Effect Size vs Placebo: Total Verbal Fluency” value (64 mg QD) was 0.36.
